Source: patent US20220323406A1, “METHODS AND COMPOSITIONS FOR DIFFERENTIATING STEM CELLS” (Massachusetts Institute of Technology, priority 2019, published 2022)

What was measured:
[1] = system: ENR+CD organoids (ISC to Paneth cell differentiation); assay: Secondary (validation) screen: LYZ.NS basal lysozyme secretion, 2.5-D 384-well ENR+CD organoids; format: cell-based, mouse; details: 6-day ENR+CD, vs ENR+CD+DMSO
Procedure: (§1) Drugs were tested at a narrowed dose range around each treatment's identified optimal dose from the primary screen (4× below, 2× above and below).
(§2) High-throughput screening.
(§3) Secondary lysozyme secretion assay screen. Confirmatory secondary screening with primary hits was performed using the above 384-well plate method. The screen was conducted with 4-plate replicates with a base media of ENR+CD. Media was supplemented with compound at day 0 and day 3 (n=8 well replicates per dose) at four different doses: two-fold above, two-fold below, and four-fold below the optimal final dose for each respective treatment. Additionally, each plate carried a large number of ENR+DMSO or ENR+CD+DMSO (vehicle) control wells (n=100 for ATP, and n=25 for LYZ.NS and LYZ.S) for robust normalization. ATP, non-stimulated lysozyme activity and CCh-stimulated lysozyme activity was again measured and the collected data was again processed in a custom R-script, per primary screen with slight modification. Values were log10 transformed, and a plate-wise FC was calculated for each well based on the median value of ENR+CD+DMSO (vehicle) control wells to normalize plate to plate variability.

[2] = system: ENR+CD organoids (ISC to Paneth cell differentiation); assay: Secondary (validation) screen: LYZ.S CCh-stimulated lysozyme secretion, 2.5-D 384-well ENR+CD organoids; format: cell-based, mouse; details: 6-day ENR+CD, vs ENR+CD+DMSO
Procedure: as §1, §2, §3

[3] = system: ENR+CD organoids (ISC to Paneth cell differentiation); assay: Primary screen: basal (non-stimulated) lysozyme secretion LYZ.NS, 2.5-D 384-well ENR+CD organoid differentiation; format: cell-based, mouse; details: primary screen; for Z.LYZ.NS: standard z score
Description: as §2

[4] = system: ENR+CD organoids (ISC to Paneth cell differentiation); assay: Primary screen: CCh-stimulated lysozyme secretion LYZ.S, 2.5-D 384-well ENR+CD organoid differentiation; format: cell-based, mouse; details: primary screen
Description: as §2

ENR+CD organoids [5] = assay: Primary screen: ATP (CellTiter-Glo 3D, CTG) cell number/viability, 2.5-D 384-well ENR+CD organoids; details: primary screen; for Z.CTG: standard z score;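 for all read-outs here: compounds given at plating and again on day 3 over a 6-day differentiation from ENR+CV stem-cell-enriched precursors, ATP measured on day 6, plate median as control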
ENR+CD organoids [6] = assay: Secondary (validation) screen: ATP (CTG) assay, 2.5-D 384-well ENR+CD organoids; format: cell-based, mouse; details: 6-day ENR+CD, vs ENR+CD+DMSO
Procedure: as §1, §2, §3

Work on `COc1cc(Nc2c(C#N)cnc3cc(OCCCN4CCN(C)CC4)c(OC)cc23)c(Cl)cc1Cl` [Bosutinib (SKI-606), Bosutinib, reference compound] yielded a Dose.FC.LYZ.NS ([1]; 0.02 uM) of 0.133 log2 fold change, a Dose.FC.LYZ.NS ([1]; 0.04 uM) of −0.067 log2 fold change and a Dose.FC.LYZ.NS ([1]; 0.08 uM) of −0.070 log2 fold change. The Dose.FC.LYZ.NS ([1]; […]) was 0.068 log2 fold change, the Dose.FC.LYZ.S ([2]; 0.02 uM) was 0.103 log2 fold change and the Dose.FC.LYZ.S ([2]; 0.04 uM) was −0.086 log2 fold change. It also gave a Dose.FC.LYZ.S ([2]; 0.08 uM) of −0.072 log2 fold change, a Dose.FC.LYZ.S ([2]; […]) of 0.007 log2 fold change and a Dose.FC.LYZ.NS ([3]; dose 0.08 uM) of 0.213 log2 fold change. The “Z.LYZ.NS (standard z score)” value ([3]; dose 0.08 uM) was 1.858, the Dose.FC.LYZ.NS ([3]; dose 0.40 uM) was 0.130 log2 fold change and the “Z.LYZ.NS (standard z score)” value ([3]; dose 0.40 uM) was 1.129. The Dose.FC.LYZ.NS ([3]; dose 2.00 uM) was −0.049 log2 fold change, the “Z.LYZ.NS (standard z score)” value ([3]; dose 2.00 uM) was −0.425 and the Dose.FC.LYZ.NS ([3]; dose 10.00 uM) was −0.115 log2 fold change. For the same compound, the “Z.LYZ.NS (standard z score)” value ([3]; dose 10.00 uM) was −1.005, the Dose.FC.LYZ.S ([4]; dose 0.08 uM) was 0.308 log2 fold change and the Dose.FC.LYZ.S ([4]; dose 0.40 uM) was 0.208 log2 fold change. It also gave a Dose.FC.LYZ.S ([4]; dose 2.00 uM) of −0.058 log2 fold change, a Dose.FC.LYZ.S ([4]; dose 10.00 uM) of −0.223 log2 fold change and a Dose.FC.CTG (ENR+CD organoids [5]; dose 0.08 uM) of 0.628 log2 fold change. The Dose.FC.CTG (ENR+CD organoids [5]; dose 0.40 uM) was 0.302 log2 fold change, the Dose.FC.CTG (ENR+CD organoids [5]; dose 2.00 uM) was −0.169 log2 fold change and the Dose.FC.CTG (ENR+CD organoids [5]; dose 10.00 uM) was −0.668 log2 fold change. It also gave a Dose.FC.CTG (ENR+CD organoids [6]; 0.02 uM) of 0.216 log2 fold change, a Dose.FC.CTG (ENR+CD organoids [6]; 0.04 uM) of 0.139 log2 fold change and a Dose.FC.CTG (ENR+CD organoids [6]; 0.08 uM) of 0.082 log2 fold change. The Dose.FC.CTG (ENR+CD organoids [6]; […]) was 0.128 log2 fold change.

In the case of `NC1(Cc2ccc(Cl)cc2)CCN(c2ncnc3[nH]ccc23)CC1` [CCT128930], the Dose.FC.LYZ.NS ([1]; 0.02 uM) is reported as −0.241 log2 fold change, the Z.LYZ.NS ([1]; 0.02 uM) is reported as −1.927 and the repSSMD.LYZ.NS ([1]; 0.02 uM) is reported as −2.551. For the same compound, the Dose.FC.LYZ.NS ([1]; 0.04 uM) was −0.020 log2 fold change, the Z.LYZ.NS ([1]; 0.04 uM) was −0.164 and the repSSMD.LYZ.NS ([1]; 0.04 uM) was −0.204. It also gave a Dose.FC.LYZ.NS ([1]; 0.08 uM) of 0.031 log2 fold change, a Z.LYZ.NS ([1]; 0.08 uM) of 0.248 and a repSSMD.LYZ.NS ([1]; 0.08 uM) of 0.366. It also gave a Dose.FC.LYZ.NS ([1]; […]) of −0.160 log2 fold change, a Dose.FC.LYZ.S ([2]; 0.02 uM) of −0.319 log2 fold change and a Z.LYZ.S ([2]; 0.02 uM) of −2.445. The repSSMD.LYZ.S ([2]; 0.02 uM) was −3.825, the Dose.FC.LYZ.S ([2]; 0.04 uM) was −0.014 log2 fold change and the Z.LYZ.S ([2]; 0.04 uM) was −0.108. It also gave a repSSMD.LYZ.S ([2]; 0.04 uM) of −0.157, a Dose.FC.LYZ.S ([2]; 0.08 uM) of 0.005 log2 fold change and a Z.LYZ.S ([2]; 0.08 uM) of 0.041. The repSSMD.LYZ.S ([2]; 0.08 uM) was 0.069, the Dose.FC.LYZ.S ([2]; […]) was −0.217 log2 fold change and the Dose.FC.LYZ.NS ([3]; dose 0.08 uM) was 0.323 log2 fold change. The Dose.FC.LYZ.NS ([3]; dose 0.40 uM) was −0.018 log2 fold change, the Dose.FC.LYZ.NS ([3]; dose 2.00 uM) was 0.073 log2 fold change and the Dose.FC.LYZ.NS ([3]; dose 10.00 uM) was −0.150 log2 fold change. The Z.LYZ.NS ([3]; dose 0.08 uM) was 2.811, the Z.LYZ.NS ([3]; dose 0.40 uM) was −0.154 and the Z.LYZ.NS ([3]; dose 2.00 uM) was 0.633. It also gave a Z.LYZ.NS ([3]; dose 10.00 uM) of −1.307, a Dose.FC.LYZ.S ([4]; dose 0.08 uM) of 0.266 log2 fold change and a Dose.FC.LYZ.S ([4]; dose 0.40 uM) of −0.007 log2 fold change. It also gave a Dose.FC.LYZ.S ([4]; dose 2.00 uM) of 0.053 log2 fold change, a Dose.FC.LYZ.S ([4]; dose 10.00 uM) of −0.201 log2 fold change and a Dose.FC.CTG (ENR+CD organoids [5]; dose 0.08 uM) of 0.095 log2 fold change. It also gave a Dose.FC.CTG (ENR+CD organoids [5]; dose 0.40 uM) of −0.025 log2 fold change, a Dose.FC.CTG (ENR+CD organoids [5]; dose 2.00 uM) of 0.127 log2 fold change and a Dose.FC.CTG (ENR+CD organoids [5]; dose 10.00 uM) of −0.175 log2 fold change. For the same compound, the Z.CTG (ENR+CD organoids [5]; dose 0.08 uM) was 0.228, the Z.CTG (ENR+CD organoids [5]; dose 0.40 uM) was −0.060 and the Z.CTG (ENR+CD organoids [5]; dose 2.00 uM) was 0.304. It also gave a Z.CTG (ENR+CD organoids [5]; dose 10.00 uM) of −0.418, a Dose.FC.CTG (ENR+CD organoids [6]; 0.02 uM) of −0.117 log2 fold change and a Z.CTG (ENR+CD organoids [6]; 0.02 uM) of −1.054. It also gave a repSSMD.CTG (ENR+CD organoids [6]; 0.02 uM) of −0.787, a Dose.FC.CTG (ENR+CD organoids [6]; 0.04 uM) of 0.122 log2 fold change and a Z.CTG (ENR+CD organoids [6]; 0.04 uM) of 1.101. For the same compound, the repSSMD.CTG (ENR+CD organoids [6]; 0.04 uM) was 0.922, the Dose.FC.CTG (ENR+CD organoids [6]; 0.08 uM) was 0.166 log2 fold change and the Z.CTG (ENR+CD organoids [6]; 0.08 uM) was 1.494. For the same compound, the repSSMD.CTG (ENR+CD organoids [6]; 0.08 uM) was 1.047 and the Dose.FC.CTG (ENR+CD organoids [6]; […]) was −0.088 log2 fold change.
